{"source": "patent US11903920B2", "about": "“Cannabinoid formulation: production method and use” (CHIROSYN DISCOVERY TECHNOLOGIES INC., priority 2022, dated 2024)", "origin": "cited, not measured here", "conditions": "depending on the method and route of administration", "data": [{"smiles": "C=C(C)[C@@H]1CCC(C)=C[C@H]1c1c(O)cc(CCCCC)cc1O", "note": "[CBD, 2-[1R-3-methyl-6R-(1-methylethenyl)-2-cyclohexen-1-yl]-5-pentyl-1,3-benzenediol]", "values": [{"measurement": "Half-life", "value": "1.4 to 120", "unit": "h"}]}]}
